Laboratory results: US12234288B2, “Immunogenic arginase 2 polypeptides” (IO Biotech ApS, priority 2018, dated 2025)

Key:
[1] = system: PBMCs from healthy donors and cancer patients; assay: IFNγ ELISPOT of PBMCs pre-stimulated one week in vitro with peptide and low-dose IL-2; format: cell-based, human; details: for IFNy ELISPOT response: validation of hotspot region peptides, PBMCs from two healthy donors, FIG. 4
Experimental: For in vitro ELISPOT, PBMCs from cancer patients and healthy donors were pulsed with 20 μM of […] (or with no peptide as a control) and 120 U/ml IL-2 in 24-well plates for 7 days before being used in an ELISPOT assay. The cells were placed in 96-well nitrocellulose ELISPOT plates (MultiScreen MAIP N45; Millipore) pre-coated with IFNγ capture antibody (Mabtech). Arginase peptides added to a final concentration of 5 μM and plates incubated at 37° C. for 14-16 hours. After the incubation the cells were washed off and secondary biotinylated Ab (Mabtech, cat. 3420-{6-1000) was added for 2 hours at room temperature. Unbound secondary antibody was washed off and streptavidin conjugated alkaline phosphatase (AP) (Mabtech, cat. 3310-10) was added for 1 hour at room temperature. Unbound conjugated enzyme was washed off and the assay was developed by adding BCIP/NBT substrate (Mabtech, cat. 3650-10). Developed ELISPOT plates were analyzed on CTL ImmunoSpot S6 Ultimate-V analyzer using Immunospot software v5.1. Responses were reported as the difference between average numbers of spots in wells stimulated with arginase2 and wells without added peptide.
To test whether these peptides could be used to identify Arginase2 responses, PBMCs from 12 healthy donors and one cancer patients were screened for responses in IFNγ ELISPOT. PBMCs were stimulated with Arginase2 peptides and low dose IL-2 for 1 week prior to ELISPOT.
The entire arginase2 protein sequence was divided into overlapping 20-amino-acid-long peptides (with a final peptide of 24 amino acids), generating a library of 34 peptides covering the whole sequence (SEQ ID NOs 1-34)). Each peptide in the library overlapped with the first 10 amino acids of the following peptide. Using this arginase2 peptide library and the IFNγ ELISPOT assay, we next screened PBMCs from 6 healthy donors for spontaneous responses. The PBMCs were stimulated for one week with a pool of 3-4 adjacent 20-mer arginase2 library peptides and low-dose IL-2 (120 U/mL). They were then set up for an IFNγ ELISPOT assay to screen for responses against each 20-mer peptide separately.
PBMCs from two healthy donors were stimulated for one week with a single peptide and low-dose IL-2 (120 U/mL) before IFNy ELISPOTassay to validate the responses observed in the library screen.
PBMCs from […] were stimulated for one week with a single peptide and low-dose IL-2 (120 U/mL) before IFNy ELISPOTassay to validate the responses observed in the library screen. ARG2_1, ARG2_5, ARG2_13, ARG2_18 and ARG2_22 were tested in this validation.
ARG2_1 was used to screen for responses in 8 melanoma patients (AA07-AA31), 4 prostate cancer patients (UR07-27) and 13 healthy donors. PBMCs from each were stimulated for one week with a single peptide and low-dose IL-2 (120 U/mL) before IFNy ELISPOT assay.
PBMCs from healthy donors or cancer patients were stimulated with 10 μM of ARG2-derived peptides in vitro to enhance assay sensitivity. On day 2, IL-2 was added to a total of 120 U/ml IL-2 (Novartis). After 7 days, 4-6×10^5 PBMCs were placed at the bottom of an ELISPOT plate pre-coated with IFNy capture antibody (Mabtech). PBMCs from each donor or patient were set up in triplicates or quadruplicates for peptide (5 μM ARG2-derived peptide) and control stimulations. Cells were incubated in ELISPOT plates in the presence of an antigen for 14-16 hrs after which they were washed off and secondary biotinylated antibody (Mabtech) was added. After two hour incubation the secondary antibody was washed off before addition of streptavidin conjugated alkaline phosphatase (Mabtech) for 1 hr. Next, unbound enzyme was washed off and the assay was developed by adding BCIP/NBT subtrate (Mabtech). Developed ELISPOT plates were analyzed on CTL Immunospot S6 Ultimate-V analyzer with ImmunoSpot software, version 5.1. […]

THP-1 cells [2] = assay: ARG1/ARG2 expression by RT-qPCR in THP-1 cells; format: cell-based, human; details: 48 hr stimulation, FIG. 17C/17H
Experimental: (§1) Cytokine stimulation with IL-4 (400 U/ml), IL-13 (50 ng/ml), IFNy (100 U/ml) or cytokine cocktail (400 U/ml IL-4, 1000 U/ml GM-CSF and 1000 U/ml TNFa) was done by seeding of 0.5-0.75×10^6 cell/mL medium supplemented with the respective cytokines and 48 hrs of incubation before cells were harvested for various experiments. All cytokines are from Trichem.
(§2) Total RNA was reverse transcribed using the High Capacity cDNA Reverse Transcription Kit (Applied Biosystems). For each reaction, 1000 ng RNA was reverse transcribed. For RT-qPCR, the cDNA was diluted 1:5 and subjected to RT-qPCR analysis using the TaqMan Gene Expression Assay on the Roche Lightcycler 480 Instrument. RT-qPCRs were run in quadruplicates and data was analyzed using the ddCT-method with normalization to expression level of the house keeping gene RPLPO and control sample. For low concentration samples that were not amplified, Ct was set to 40. No-reverse transcriptase controls (cDNA reactions setup without reverse transcriptase) served as controls of specific amplification. A list of primers used in this study is found below.
A set of three siRNA duplexes targeting ARG2 was obtained from Ambion (ARG2 Silencer Select Validated siRNA, ID s1571, s1572, s1573). siRNAs were suspended in nuclease free water to 0.1 nmol stock solutions and stored at −80° C. For ARG2 silencing experiments, THP-1 cells were prepared for electroporation as described above and 10 μl of a working solution of 0.02 nmol siRNA solution was added of each of the three siRNA before transfection as previously described. Immediately after transfection, cells were transferred to pre-warmed medium and incubated for 1 hr. Transfected cells were then split in two and to half of the cells cytokine cocktail (400 U/ml IL-4, 1000 U/ml GM-CSF and 1000 U/ml TNFa) was added. Cells were incubated in medium or medium containing cytokine cocktail for 48 hrs before they were set up in intracellular cytokine staining assay. Cells were pelleted for RNA after 48 hrs for accession of knock down efficiency by RT-qPCR.

C57BL/6 mice = assay: Peptide vaccination of mice followed by murine IFNy ELISPOT of spleen cells; format: in vivo, mouse; details: for mIFNy ELISPOT response to the peptide in mice vaccinated with mArg2 P5: FIG. 13; for mIFNy ELISPOT response after vaccination: three C57 mice per peptide vaccinated s.c., 7 days, FIG. 12 / FIG. 20A
Text: 3 mice in each group are vaccinated s.c. with one of the six peptides. 7 days after, the mice are terminated, spleens are homogenised and PBMC are used for mIFNy ELISPOT.
These peptides are used for a vaccination screen (see experimental schematic in FIG. 11), where three C57 mice are vaccinated subcutaneously with one of the 6 peptides. One week later, the mice are sacrificed and the spleens homogenized to obtain PBMC. These are used to set up IFNy ELISPOT to screen for responses against both the peptide used for vaccination and the other predicted epitope peptides with overlapping sequences.
(§3) Dissolved peptides were subsequently emulsified with Montanide™ adjuvant (50ul/mouse) (Seppic Inc.) for an optimal dose of 100 ug total peptide given in a total volume of 100 ul. The emulsified peptide vaccination was injected subcutaneously at the base or the tail or the flank of 12-16 week old C57BL/6 mice with a 27G needle. Control mice were given water and Montanide™ emulsification in a total volume of 100 ul. For therapeutic vaccine studies on tumor inoculated mice, vaccinations were given at day 0 and 7 after tumor inoculation at the flank of the tail and the left flank, respectively. For epitope screening- and validation experiments, a single dose of vaccine was given to mice at the right flank. One week later, mice were sacrificed, and spleens were recovered. Spleens were smashed through a […] filter and red blood cells were lysed using Red Blood Cell Lysis Buffer (Qiagen). Cells were washed 4 times and counted before setup for murine IFNy ELISPOT assay with 8*10^6 cells pr. well.

[3] = system: Lewis Lung (LL2) tumor cells; assay: Therapeutic vaccination study in Lewis Lung (LL2) tumor inoculated mice; format: in vivo; details: LL2 tumors in C57BL/6 mice, vaccinations day 0 and day 7, compared to control, FIG. 20E-G
Experimental: LL2 cells (5*10^5) were resuspended in 100 ul of serum free medium and were injected subcutaneously in the right flank of female C57BL/6 mice. Tumor volumes were measured by digital caliper and the endpoint of tumor study was a tumor reaching the threshold size of 800 mm^3 or due to the formation of ulcers on the tumor.
as §3, with “well. […]” for “well.”

THP-1 cells [4] = assay: Flow cytometric analysis of HLA-DR expression in THP-1 cells; format: cell-based, human; details: 48 hrs stimulation, data not shown
Experimental: HLA-DR expression analysis was performed on cells stimulated for 48 hrs with mock (no cytokines), IFNy (100U/ml) or cytokine cocktail (400U/m1 IL-4, 1000 U/ml GM-CSF and 1000 U/ml TNFa). Briefly, cells were washed and stained with 7-AAD (cat: 51-68981E, BD Bioscience) and FITC-conjugated mouse anti-human HLA-DR, DP, DQ (cat: 5555581, BD Bioscience) or FITC-conjugated mouse IgG1 K isotype ctrl (FC) (cat: 400109, BD Bioscience) for 30 minutes at 4° C. Excess antibody was washed off before cells were analyzed on FACSCanto™ II instrument. HLA-DR expression levels is given as the difference in MFI between MHC Class II stained live cells and isotype control stained live cells.

MONO-MAC-1 cells = assay: ARG2 expression by RT-qPCR in MONO-MAC-1 cells; format: cell-based, human; details: 48 hrs incubation, FIG. 18A/B
Experimental: as §1, §2

Molecule: FSWIKPCISSASIVYIGLRD (listed as Homo sapiens) [ARG2_18, polypeptide derived from human Arginase2, aa181-200]
- IFNy ELISPOT response [1]: strongest and most consistent responses

Molecule: IL-13: cytokine from Trichem, used at 50 ng/ml [reference compound]
- induction of ARG2 expression (THP-1 cells [2]): did not have much effect

Molecule: LSPPNIVYI (listed as Mus musculus) [mArg2 P5, polypeptide derived from murine Arginase2, aa188-196]
- mIFNy ELISPOT response to the peptide in mice vaccinated with mArg2 P5 (C57BL/6 mice; listed as mArg2_188-196): strong mIFNy responses
- mIFNy ELISPOT response after vaccination (C57BL/6 mice): strongest and most prominent responses

Molecule: NYDIQYFSMRDIDRLGIQKV (listed as Homo sapiens) [ARG2_21, polypeptide derived from human Arginase2, aa211-230]
- IFNy ELISPOT response [1]: stronger response

Molecule: PNIVYIGL (listed as Mus musculus) [mArg2 P3, polypeptide derived from murine Arginase2, aa191-198]
- mIFNy ELISPOT response to the peptide in mice vaccinated with mArg2 P5 (C57BL/6 mice): no response or only weak responses

Molecule: SASIVYIGLRDVDPPEHFIL (listed as Homo sapiens) [ARG2-E18, polypeptide derived from human Arginase2, aa190-209]
- IFNγ ELISPOT response ([1]; hotspot peptide screen, PBMCs from 12 healthy donors and one cancer patient, FIG. 2): highest and most consistent response

Molecule: WIKPCLSPPNIVYIGL (listed as Mus musculus) [mArg2 P4, polypeptide derived from murine Arginase2, aa182-197]
- tumor growth [3]: decreased tumor growth
- mIFNy ELISPOT response to the peptide in mice vaccinated with mArg2 P5 (C57BL/6 mice; listed as mArg2_182-197): strong mIFNy responses
- mIFNy ELISPOT response after vaccination (C57BL/6 mice): Strong immune responses

B1: IL-4: cytokine from Trichem, used at 400 U/ml (protein, UniProt P05112 25-153, looked up)
Interleukin-4: HKCDITLQEIIKTLNSLTEQKTLCTELTVTDIFAASKNTTEKETFCRAATVLRQFYSHHEKDTRCLGATAQQFHRHKQLIRFLKRLDRNLWGLAGLNSCPVKEANQSTLENFLERLKTIMREKYSKCSS
- induction of ARG2 expression (THP-1 cells [2]): did not have much effect

B2: IFNy: cytokine from Trichem, used at 100 U/ml (protein, UniProt P01579 24-161, looked up)
Interferon gamma: QDPYVKEAENLKKYFNAGHSDVADNGTLFLGILKNWKEESDRKIMQSQIVSFYFKLFKNFKDDQSIQKSVETIKEDMNVKFFNSNKKKRDDFEKLTNYSVTDLNVQRKAIHELIQVMAELSPAAKTGKRKRSQMLFRG
- HLA-DR expression (THP-1 cells [4]): increase HLA-DR expression
- induction of ARG2 expression (THP-1 cells [2]): not ARG2 expression
- ARG2 expression (MONO-MAC-1 cells): did not upregulate ARG2 expression
